The target of one data set is T1, 5-HT2c binding site (Rattus norvegicus, UniProt P08909).
T1 construct: ability to displace [^3H]-mesulergine in the rat prefrontal cortex; from tissue; host or cells: rat prefrontal cortex membrane suspension
T1 sequence (P08909 33-460): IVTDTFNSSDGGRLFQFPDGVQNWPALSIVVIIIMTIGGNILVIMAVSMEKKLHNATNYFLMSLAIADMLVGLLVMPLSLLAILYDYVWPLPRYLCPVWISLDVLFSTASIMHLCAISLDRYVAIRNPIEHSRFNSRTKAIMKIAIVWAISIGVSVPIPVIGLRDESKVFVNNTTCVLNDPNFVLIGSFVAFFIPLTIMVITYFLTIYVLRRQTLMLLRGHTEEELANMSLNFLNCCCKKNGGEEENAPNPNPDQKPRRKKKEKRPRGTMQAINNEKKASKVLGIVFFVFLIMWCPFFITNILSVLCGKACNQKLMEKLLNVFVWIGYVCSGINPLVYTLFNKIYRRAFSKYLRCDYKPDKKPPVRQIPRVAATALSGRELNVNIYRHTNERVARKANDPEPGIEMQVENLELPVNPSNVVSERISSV
Nature of the data set: [3H]-mesulergine binding. Particulars: displacement of [3H]-mesulergine (1 nM) in rat prefrontal cortex membranes; test drugs 10^-6 M; 30 nM spiperone present; 37° C., 30 minutes. On the procedure:
[^3H]-mesulergine Binding
The affinity of the test drugs for the 5-HT2c binding site can be determined by assessing their ability to displace [^3H]-mesulergine in the rat prefrontal cortex. The method employed was similar to that of Pazos et al, 1984.
The membrane suspension ([…]) was incubated with [^3H]-mesulergine (1 nM) in Tris HCl buffer containing CaCl2 4 mM and ascorbic acid 0.1% (pH 7.4) at 37° C. for 30 minutes. Non-specific binding was measured in the presence of mianserin (1 μM). 30 nM spiperone was used to prevent binding to 5-HT2A sites. Test drugs (10^−6 M) were added in a volume of 100 μl. The total assay volume was 1000 μl. Incubation was stopped by rapid filtration using a Brandel cell harvester and radioactivity measured by scintillation counting.
The IC50 values were determined using a four parameter logistic program (DeLean 1978) and the pKi (the negative logarithm of the inhibition constant) calculated from the Cheng Prusoff equation where: [formula]
C=concentration of [^3H]-mesulergine
Kd=affinity of mesulergine for 5-HT2c binding site.
A general note: Displacement assays read how much labelled ligand stays bound in the presence of the test substance.

Regarding `O=C(Nc1cccc(-c2ccnnc2)c1)c1cccc2c1Cc1ccccc1-2` [(4), N-(3-(pyridazin-4-yl)phenyl)-9H-fluorene-1-carboxamide], the “Inhibition (%)” value on 5-HT2c binding site turned out to be 64%. One may read the melting point as the temperature, or range, at which the solid turns liquid. As to `O=C(Nc1cccc(-n2ccnc2)c1)c1csc(-c2ccccc2)n1` [Example 25, N-(3-(imidazol-1-yl)phenyl)-2-phenylthiazole-4-carboxamide], the melting point fell in the range of 131 to 134 °C.

As to `Cn1ccc2cc(NC(=O)Nc3cccnc3)ccc21` [(1), N-(1-Methyl-1H-indol-5-yl)-N′-(3-pyridyl)urea, reference compound], the “Inhibition (%)” value at 5-HT2c binding site was found to be 21%.

Consider `O=C(Nc1cccc(-c2cccnc2)c1)c1cccc2c1Cc1ccccc1-2` [(2), N-(3-(pyridin-3-yl)phenyl)-9H-fluorene-1-carboxamide], for which the “Inhibition (%)” value on 5-HT2c binding site is 74%. Take `O=C(Nc1cccc(-c2cncnc2)c1)c1cccc2c1Cc1ccccc1-2` [(3), N-(3-(pyrimidin-5-yl)phenyl)-9H-fluorene-1-carboxamide]: the “Inhibition (%)” value on 5-HT2c binding site is 92%.
